Laboratory results: PMC6754293 (Cell chemical biology, 2019)

What was measured:
[1] = test system: tyrosine phosphorylated FER in H1155 cells; test: pY immunoprecipitation of FER; type: cell-based; details: 3 hours, 1 μM
FAK autophosphorylation = FAK autophosphorylation immunoblot; type: cell-based; details: at the concentrations used
SCLC cell lines = test: viability of SCLC cell lines; type: cell-based; details: 72 hours treatment
NSCLC cell lines = test: viability-based drug screen and dose response; details: 72 hours treatment; screen at 0.5 μM and 2.5 μM, confirmed in 14 NSCLC cell lines
H1155 cells = test: H1155 cell viability with tool compounds alone or combined; type: cell-based; details: compared to AURKB inhibition
[2] = test system: pERK at T202/Y204 (substrate sites of MEK1/2); test: Western blot of pERK; type: cell-based; details: H1155 and A427 cells; 1 hour; 0.1, 0.5 and 1 μM
A427 cells = test: crystal violet clonogenic assay; type: cell-based; details: 10 days
[3] = test system: MET autophosphorylation in H1648 cells
AURKA = molecular target: T1, AURKA (Homo sapiens, UniProt O14965); test: in vitro kinase assay AURKA; type: biochemical; details: 10 μM ATP; compared with cabozantinib
T1 sequence (O14965 1-403): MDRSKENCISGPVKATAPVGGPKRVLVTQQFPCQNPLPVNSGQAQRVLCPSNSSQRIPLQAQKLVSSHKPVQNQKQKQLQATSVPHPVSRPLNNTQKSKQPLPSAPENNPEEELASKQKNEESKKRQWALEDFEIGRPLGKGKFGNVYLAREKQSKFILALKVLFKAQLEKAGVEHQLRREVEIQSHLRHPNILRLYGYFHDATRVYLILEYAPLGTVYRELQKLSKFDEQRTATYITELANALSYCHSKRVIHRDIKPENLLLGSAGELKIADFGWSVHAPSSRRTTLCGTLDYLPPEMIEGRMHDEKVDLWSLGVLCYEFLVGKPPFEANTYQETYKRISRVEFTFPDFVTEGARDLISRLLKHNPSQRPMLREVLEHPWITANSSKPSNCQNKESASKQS

FER = FER (Homo sapiens, UniProt P16591); test: in vitro kinase assay FER; type: biochemical; details: 10 μM ATP; compared with cabozantinib
H1155 and A427 cells [4] = test: cell cycle analysis; type: cell-based; details: 6 hours
[5] = test system: histone H3 at S10 (downstream target of AURKB); test: Western blot of pH3; type: cell-based; details: H1155 cells, 6 hours, 0.05, 0.25 and 0.5 μM
H1155 and A427 cells [6] = type: cell-based; details: 0.5 μM and 1 μM, 24 hours (blot), 24 and 48 hours (imaging)
SRC = SRC (Homo sapiens, UniProt P12931); test: in vitro kinase assay SRC; type: biochemical; details: 10 μM ATP; compared with cabozantinib
AURKB = AURKB (Homo sapiens, UniProt Q96GD4); test: in vitro kinase assay AURKB; type: biochemical; details: 10 μM ATP; compared with cabozantinib
[7] = test system: SRC autophosphorylation at Y419 in H1155 cells; test: SRC autophosphorylation at Y419; type: cell-based; details: data not shown
MEK1 = MEK1 (Homo sapiens, UniProt Q02750); test: in vitro kinase assay MEK1; type: biochemical; details: 10 μM ATP; compared with cabozantinib
MET = MET (Homo sapiens, UniProt P08581); test: pulldowns with H1648 lysate and in vitro MET kinase assays of probes; type: biochemical
MEK2 = details: read-out: IC50 MEK2; second value of MEK1/2 pair; ref Yamaguchi et al., 2011; cited from earlier work

Sequence of SRC (P12931 whole entry): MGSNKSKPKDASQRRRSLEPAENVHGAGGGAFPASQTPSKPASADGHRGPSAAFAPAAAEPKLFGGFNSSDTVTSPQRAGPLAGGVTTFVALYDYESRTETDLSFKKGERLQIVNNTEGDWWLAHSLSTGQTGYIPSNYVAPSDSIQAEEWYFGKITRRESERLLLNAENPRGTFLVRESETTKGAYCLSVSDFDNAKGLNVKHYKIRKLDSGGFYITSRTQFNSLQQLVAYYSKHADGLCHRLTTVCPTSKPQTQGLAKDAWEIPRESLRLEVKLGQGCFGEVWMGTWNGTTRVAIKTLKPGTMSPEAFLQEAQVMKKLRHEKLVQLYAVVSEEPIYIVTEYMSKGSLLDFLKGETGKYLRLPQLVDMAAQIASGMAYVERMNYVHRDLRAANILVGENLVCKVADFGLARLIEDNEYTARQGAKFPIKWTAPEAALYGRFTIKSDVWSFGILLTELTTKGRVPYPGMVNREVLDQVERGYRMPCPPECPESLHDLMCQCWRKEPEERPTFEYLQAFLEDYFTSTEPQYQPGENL
Sequence of MET (P08581 25-1390): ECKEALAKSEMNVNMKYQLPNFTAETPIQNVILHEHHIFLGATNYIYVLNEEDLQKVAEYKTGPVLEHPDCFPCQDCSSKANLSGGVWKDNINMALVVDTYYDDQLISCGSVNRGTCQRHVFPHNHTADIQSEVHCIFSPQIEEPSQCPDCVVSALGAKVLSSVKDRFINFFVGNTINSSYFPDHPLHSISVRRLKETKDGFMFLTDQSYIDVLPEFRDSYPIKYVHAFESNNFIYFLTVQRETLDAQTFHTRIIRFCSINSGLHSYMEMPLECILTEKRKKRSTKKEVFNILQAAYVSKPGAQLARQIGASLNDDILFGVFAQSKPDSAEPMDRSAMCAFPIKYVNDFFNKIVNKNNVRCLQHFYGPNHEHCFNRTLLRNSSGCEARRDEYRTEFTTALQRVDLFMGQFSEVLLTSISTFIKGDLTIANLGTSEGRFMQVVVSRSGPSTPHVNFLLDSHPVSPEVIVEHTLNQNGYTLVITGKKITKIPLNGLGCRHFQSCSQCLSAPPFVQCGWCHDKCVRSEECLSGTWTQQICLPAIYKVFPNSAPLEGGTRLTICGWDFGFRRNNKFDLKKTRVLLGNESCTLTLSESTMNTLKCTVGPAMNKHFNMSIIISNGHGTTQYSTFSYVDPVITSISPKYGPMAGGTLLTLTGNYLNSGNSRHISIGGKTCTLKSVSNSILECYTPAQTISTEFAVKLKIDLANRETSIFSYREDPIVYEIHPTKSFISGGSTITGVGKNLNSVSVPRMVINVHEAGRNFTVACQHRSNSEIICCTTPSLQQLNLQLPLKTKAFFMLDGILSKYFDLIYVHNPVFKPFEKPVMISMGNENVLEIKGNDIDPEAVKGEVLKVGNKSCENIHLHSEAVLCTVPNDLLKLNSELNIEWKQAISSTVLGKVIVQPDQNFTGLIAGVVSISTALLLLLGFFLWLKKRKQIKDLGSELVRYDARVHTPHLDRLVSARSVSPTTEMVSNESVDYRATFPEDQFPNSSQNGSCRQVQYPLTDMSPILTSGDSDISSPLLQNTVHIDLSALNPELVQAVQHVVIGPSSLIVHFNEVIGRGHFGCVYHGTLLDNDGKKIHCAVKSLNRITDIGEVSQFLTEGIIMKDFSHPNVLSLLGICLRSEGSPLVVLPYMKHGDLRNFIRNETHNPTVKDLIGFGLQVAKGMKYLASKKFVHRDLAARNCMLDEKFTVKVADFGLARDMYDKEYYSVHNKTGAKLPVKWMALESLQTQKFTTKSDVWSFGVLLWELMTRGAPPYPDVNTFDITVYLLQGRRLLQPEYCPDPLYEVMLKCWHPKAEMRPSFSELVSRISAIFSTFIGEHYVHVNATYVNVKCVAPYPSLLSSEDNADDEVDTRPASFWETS
Sequence of MEK1 (Q02750 whole entry): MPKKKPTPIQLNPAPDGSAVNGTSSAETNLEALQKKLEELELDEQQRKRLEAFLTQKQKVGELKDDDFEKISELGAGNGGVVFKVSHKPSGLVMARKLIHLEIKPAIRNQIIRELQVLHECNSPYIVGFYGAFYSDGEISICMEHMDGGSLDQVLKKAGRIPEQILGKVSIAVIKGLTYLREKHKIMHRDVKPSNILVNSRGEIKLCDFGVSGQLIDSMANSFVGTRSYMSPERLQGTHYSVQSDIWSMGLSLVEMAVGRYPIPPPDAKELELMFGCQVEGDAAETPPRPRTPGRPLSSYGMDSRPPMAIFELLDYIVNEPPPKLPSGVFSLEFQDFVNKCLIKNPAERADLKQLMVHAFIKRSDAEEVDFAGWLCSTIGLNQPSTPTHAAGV
Sequence of AURKB (Q96GD4 whole entry): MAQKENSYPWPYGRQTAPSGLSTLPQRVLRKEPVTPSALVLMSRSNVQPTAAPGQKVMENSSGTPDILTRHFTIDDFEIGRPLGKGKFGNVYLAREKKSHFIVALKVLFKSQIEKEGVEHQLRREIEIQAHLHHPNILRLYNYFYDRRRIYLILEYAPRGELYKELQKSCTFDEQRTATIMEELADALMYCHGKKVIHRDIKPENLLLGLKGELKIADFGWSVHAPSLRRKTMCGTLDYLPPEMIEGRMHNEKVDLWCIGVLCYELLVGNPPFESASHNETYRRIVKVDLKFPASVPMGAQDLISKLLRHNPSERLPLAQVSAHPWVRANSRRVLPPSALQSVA
Sequence of FER (P16591 whole entry): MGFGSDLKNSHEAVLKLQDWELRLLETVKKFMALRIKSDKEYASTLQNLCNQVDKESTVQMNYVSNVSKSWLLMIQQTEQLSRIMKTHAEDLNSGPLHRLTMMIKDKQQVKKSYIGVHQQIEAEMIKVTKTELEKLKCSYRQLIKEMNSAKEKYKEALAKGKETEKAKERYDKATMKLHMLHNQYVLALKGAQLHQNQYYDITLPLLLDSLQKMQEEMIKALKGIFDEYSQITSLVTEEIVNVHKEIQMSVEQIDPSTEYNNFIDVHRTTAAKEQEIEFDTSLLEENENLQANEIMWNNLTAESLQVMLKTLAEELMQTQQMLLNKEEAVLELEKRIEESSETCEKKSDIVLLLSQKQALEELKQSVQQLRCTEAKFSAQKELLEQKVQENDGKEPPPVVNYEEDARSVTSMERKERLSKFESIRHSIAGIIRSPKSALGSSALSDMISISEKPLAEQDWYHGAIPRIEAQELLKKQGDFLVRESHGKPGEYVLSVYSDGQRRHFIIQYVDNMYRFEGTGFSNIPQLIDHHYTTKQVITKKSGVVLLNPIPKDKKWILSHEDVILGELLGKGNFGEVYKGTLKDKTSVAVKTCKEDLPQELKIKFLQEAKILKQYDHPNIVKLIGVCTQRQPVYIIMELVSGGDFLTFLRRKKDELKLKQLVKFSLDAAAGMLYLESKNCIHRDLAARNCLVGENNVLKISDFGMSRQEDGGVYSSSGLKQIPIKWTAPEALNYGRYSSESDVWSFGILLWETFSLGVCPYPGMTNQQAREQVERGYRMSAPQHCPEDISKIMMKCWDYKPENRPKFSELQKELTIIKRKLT

CNC(=O)c1c(F)cccc1Nc1nc(Nc2cc3c(cc2OC)CCN3C(=O)CN(C)C)nc2[nH]ccc12 [GSK1838705A]
phosphorylation changes of FER (pY immunoprecipitation) [1]: phosphorylation changes of FER | FAK autophosphorylation (FAK autophosphorylation): not affected

OCCn1cc(-c2cnc3nnn(Cc4ccc5ncccc5c4)c3n2)cn1 [PF-04217903]
effect on viability of SCLC cells (SCLC cell lines): no effect on SCLC cells | effect on viability of NSCLC cell lines (NSCLC cell lines): little to no effects

COc1cc(Nc2ncc3c(n2)-c2ccc(Cl)cc2C(c2c(F)cccc2OC)=NC3)ccc1C(=O)O [alisertib]
decrease of H1155 viability on combining with FER and MEK1/2 inhibition (H1155 cells): only in a minor decrease of viability

COc1cc2nccc(Oc3ccc(NC(=O)C4(C(=O)Nc5ccc(F)cc5)CC4)cc3)c2cc1OC [cabozantinib]
phosphorylation of pERK at T202/Y204 [2]: in contrast to cabozantinib | inhibition of A427 cell growth, clonogenic assay (A427 cells): in contrast to cabozantinib | effect on viability of SCLC cells (SCLC cell lines): in contrast to cabozantinib | effect on viability of NSCLC cell lines (NSCLC cell lines): little to no effects | inhibition of MET autophosphorylation [3]: inhibited MET autophosphorylation

COc1cc2c(Oc3ccc(NC(=O)C4(C(=O)Nc5ccc(F)cc5)CC4)cc3F)ccnc2cc1OCCCN1CCOCC1 [foretinib]
phosphorylation of pERK at T202/Y204 [2]: decreased phosphorylation of pERK | inhibition of A427 cell growth, clonogenic assay (A427 cells): inhibited A427 cell growth | phosphorylation changes of FER (pY immunoprecipitation) [1]: phosphorylation changes of FER | AURKA inhibition, in vitro kinase assay (AURKA): more potently inhibited by foretinib than by cabozantinib | FER inhibition, in vitro kinase assay (FER): more potently inhibited by foretinib than by cabozantinib | drug-induced cell cycle changes (H1155 and A427 cells [4]): pronounced accumulation of cells in G2 phase | phosphorylation of histone H3 at S10 [5]: decreased phosphorylation of histone H3 at S10 | induction of apoptosis (PARP1 and caspase 3 cleavage, caspase 3/7) (H1155 and A427 cells [6]): induced apoptosis | SRC inhibition, in vitro kinase assay (SRC): more potently inhibited by foretinib than by cabozantinib | AURKB inhibition, in vitro kinase assay (AURKB): more potently inhibited by foretinib than by cabozantinib | effect on viability of SCLC cells (SCLC cell lines): potently inhibited viability of MYC-amplified SCLC cells, but not SCLC cells without MYC amplification | effect on viability of NSCLC cell lines (NSCLC cell lines): much higher cellular activity compared to cabozantinib | FAK autophosphorylation (FAK autophosphorylation): not affected | SRC autophosphorylation at Y419 [7]: did not decrease SRC autophosphorylation | MEK1 inhibition, in vitro kinase assay (MEK1): more potently inhibited by foretinib than by cabozantinib

COc1cc2c(Oc3ccc(N(C(=O)C4(C(N)=O)CC4)c4ccc(F)cc4)cc3F)ccnc2cc1OCCCN1CCN(CCCN)CC1 [i-foretinib, N-(4-((7-(3-(4-(3-aminopropyl)piperazin-1-yl)propoxy)-6-methoxyquinolin-4-yl)oxy)-3-fluorophenyl)-N-(4-fluorophenyl)cyclopropane-1,1-dicarboxamide]
ability to bind and inhibit MET (MET): retained their ability to bind and inhibit MET

CC1(C)CNc2cc(NC(=O)c3cccnc3NCc3ccncc3)ccc21 [motesanib]
effect on viability of SCLC cells (SCLC cell lines): no effect on SCLC cells | effect on viability of NSCLC cell lines (NSCLC cell lines): little to no effects
